Measurements reported in US20250092039A1, “GLUTARIMIDE-CONTAINING PAN-KRAS-MUTANT DEGRADER COMPOUNDS AND USES THEREOF” (Tiger Biotherapeutics Inc., priority 2022, published 2025).

What was measured:
KRAS-G12V/RAF1 = KRAS-G12V/RAF1 (Homo sapiens (Human), UniProt P01116, G12V); experiment: KRAS/RAF1 binding inhibition assay (AlphaScreen)
Method in brief: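 Binding of GppNHp-loaded KRAS G12V to the RAF1 RBD was measured by AlphaScreen with test compound present in 2% DMSO (final), 60 min incubation at 4° C. Signals were converted to % inhibition versus DMSO, and IC50 was obtained by variable-slope nonlinear regression.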

KRAS G12V = KRAS G12V (Homo sapiens (Human), UniProt P01116, G12V); experiment: KRAS G12V degradation in SW620 cells (Western blot, DC50); assay type: cell-based; conditions: 24 hours
Sequence of KRAS G12V (P01116-2 other isoform, or with tags, fused parts or gaps G12V): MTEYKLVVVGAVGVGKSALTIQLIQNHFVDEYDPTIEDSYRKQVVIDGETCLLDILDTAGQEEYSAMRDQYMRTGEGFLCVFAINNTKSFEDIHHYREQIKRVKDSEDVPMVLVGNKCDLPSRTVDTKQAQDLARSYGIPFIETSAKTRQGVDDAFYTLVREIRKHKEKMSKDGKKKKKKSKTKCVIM
Method in brief: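 SW620 cells (homozygous KRAS G12V) were treated with compound for 24 hours at 37° C. KRAS in lysates was measured by Western blot with fluorescent secondary antibodies and expressed relative to DMSO vehicle (100%). DC50 came from a four-parameter variable-slope dose-response fit.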

SW620 cells = experiment: 3D cell growth inhibition of SW620 cells carrying endogenous KRAS G12V mutation (CellTiter-Glo 3D, GI50); assay type: cell-based; conditions: Homo sapiens, SW-620, 144 h; SW620 cells, 6 days; read-out: SW620 3D cell growth GI50
Method in brief: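 SW620 cells (endogenous KRAS G12V) grown in 3D were dosed next day with compound from DMSO stocks at various concentrations, then incubated 6 days at 37° C.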

Sequence of KRAS-G12V/RAF1 (P01116-2 other isoform, or with tags, fused parts or gaps G12V): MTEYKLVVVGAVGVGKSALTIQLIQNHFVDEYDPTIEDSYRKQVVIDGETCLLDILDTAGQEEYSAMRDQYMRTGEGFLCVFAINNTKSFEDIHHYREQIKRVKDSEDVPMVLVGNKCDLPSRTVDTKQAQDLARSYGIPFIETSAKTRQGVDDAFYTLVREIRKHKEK

CCc1c(F)ccc2cc(O)cc(-c3ncc4c(N5CCC[C@@](C)(O)C5)nc(OCC5(CN6CCN(C7CCC8(CC7)CCN(c7ccc9c(c7)CN(C7CCC(=O)NC7=O)C9=O)CC8)CC6)CC5)nc4c3F)c12 (stereo partly drawn) [Compound 171, 3-(5-(9-(4-((1-(((7-(8-ethyl-7-fluoro-3-hydroxynaphthalen-1-yl)-8-fluoro-4-((R)-3-hydroxy-3-methylpiperidin-1-yl)pyrido[4,3-d]pyrimidin-2-yl)oxy)methyl)cyclopropyl)methyl)piperazin-1-yl)-3-azaspiro[5.5]undecan-3-yl)-1-oxoisoindolin-2-yl)piperidine-2,6-dione]
IC50 (KRAS-G12V/RAF1): 0.02 to 0.2 µM
DC50 (KRAS G12V): > 0.1 µM
GI50 (SW620 cells): 0.01 to 0.1 µM

CCc1c(F)ccc2cc(O)cc(-c3ncc4c(N5CCC[C@@](C)(O)C5)nc(OCC5(CN6CC7(CCN(C8CN(c9ccc%10c(c9)CN(C9CCC(=O)NC9=O)C%10=O)C8)CC7)C6)CC5)nc4c3F)c12 (stereo partly drawn) [Compound 172, 3-(5-(3-(2-((1-(((7-(8-ethyl-7-fluoro-3-hydroxynaphthalen-1-yl)-8-fluoro-4-((R)-3-hydroxy-3-methylpiperidin-1-yl)pyrido[4,3-d]pyrimidin-2-yl)oxy)methyl)cyclopropyl)methyl)-2,7-diazaspiro[3.5]nonan-7-yl)azetidin-1-yl)-1-oxoisoindolin-2-yl)piperidine-2,6-dione]
IC50 (KRAS-G12V/RAF1): < 0.02 µM
DC50 (KRAS G12V): 0.001 to 0.01 µM
GI50 (SW620 cells): < 0.01 µM

CCc1cccc2cc(O)cc(-c3ncc4c(N5CCC[C@@](C)(O)C5)nc(OCC5(CN6CCC7(CC6)CC(F)(CN6CCN(c8ccc9c(c8)CN([C@H]8CCC(=O)NC8=O)C9=O)CC6)C7)CC5)nc4c3F)c12 [Compound 173, (S)-3-(5-(4-((7-((1-(((7-(8-ethyl-3-hydroxynaphthalen-1-yl)-8-fluoro-4-((R)-3-hydroxy-3-methylpiperidin-1-yl)pyrido[4,3-d]pyrimidin-2-yl)oxy)methyl)cyclopropyl)methyl)-2-fluoro-7-azaspiro[3.5]nonan-2-yl)methyl)piperazin-1-yl)-1-oxoisoindolin-2-yl)piperidine-2.6-dione]
IC50 (KRAS-G12V/RAF1): 0.02 to 0.2 µM
DC50 (KRAS G12V): < 0.001 µM
GI50 (SW620 cells): < 0.01 µM

C[C@@]1(O)CCCN(c2nc(OCC3(CN4CCC5(CC4)CC(F)(CN4CCN(c6ccc7c(c6)CN([C@H]6CCC(=O)NC6=O)C7=O)CC4)C5)CC3)nc3c(F)c(-c4cc(O)cc5ccc(F)c(F)c45)ncc23)C1 [Compound 174, (S)-3-(5-(4-((7-((1-(((7-(7,8-difluoro-3-hydroxynaphthalen-1-yl)-8-fluoro-4-((R)-3-hydroxy-3-methylpiperidin-1-yl)pyrido[4,3-d]pyrimidin-2-yl)oxy)methyl)cyclopropyl)methyl)-2-fluoro-7-azaspiro[3.5]nonan-2-yl)methyl)piperazin-1-yl)-1-oxoisoindolin-2-yl)piperidine-2,6-dione]
IC50 (KRAS-G12V/RAF1): 0.02 to 0.2 µM
DC50 (KRAS G12V): < 0.001 µM
GI50 (SW620 cells): < 0.01 µM

CCc1c(F)ccc2cc(O)cc(-c3ncc4c(N5CCOC[C@@](C)(O)C5)nc(OCC5(CN6CCC7(CC6)CC(F)(CN6CCN(c8ccc9c(c8)CN([C@H]8CCC(=O)NC8=O)C9=O)CC6)C7)CC5)nc4c3F)c12 [Compound 175, (S)-3-(5-(4-((7-((1-(((7-(8-ethyl-7-fluoro-3-hydroxynaphthalen-1-yl)-8-fluoro-4-((S)-6-hydroxy-6-methyl-1,4-oxazepan-4-yl)pyrido[4,3-d]pyrimidin-2-yl)oxy)methyl)cyclopropyl)methyl)-2-fluoro-7-azaspiro[3.5]nonan-2-yl)methyl)piperazin-1-yl)-1-oxoisoindolin-2-yl)piperidine-2,6-dione]
IC50 (KRAS-G12V/RAF1): < 0.02 µM
DC50 (KRAS G12V): < 0.001 µM
GI50 (SW620 cells): < 0.01 µM

CCc1c(F)ccc2cc(O)cc(-c3ncc4c(N5CCC[C@@](C)(O)C5)nc(OCC5(CN6CCC7(CC6)CC(OC6CCN(c8ccc9c(c8)CN(C8CCC(=O)NC8=O)C9=O)CC6)C7)CC5)nc4c3F)c12 (stereo partly drawn) [Compound 176, 3-(5-(4-((7-((1-(((7-(8-ethyl-7-fluoro-3-hydroxynaphthalen-1-yl)-8-fluoro-4-((R)-3-hydroxy-3-methylpiperidin-1-yl)pyrido[4,3-d]pyrimidin-2-yl)oxy)methyl)cyclopropyl)methyl)-7-azaspiro[3.5]nonan-2-yl)oxy)piperidin-1-yl)-1-oxoisoindolin-2-yl)piperidine-2,6-dione]
IC50 (KRAS-G12V/RAF1): 0.02 to 0.2 µM
DC50 (KRAS G12V): < 0.001 µM
GI50 (SW620 cells): < 0.01 µM

C[C@@]1(O)CCCN(c2nc(OCC3(CN4CC5(CCC(F)(CN6CCN(c7ccc8c(c7)CN([C@H]7CCC(=O)NC7=O)C8=O)CC6)CC5)C4)CC3)nc3c(F)c(-c4cc(O)cc5ccc(F)c(F)c45)ncc23)C1 [Compound 177, (S)-3-(5-(4-((2-((1-(((7-(7,8-difluoro-3-hydroxynaphthalen-1-yl)-8-fluoro-4-((R)-3-hydroxy-3-methylpiperidin-1-yl)pyrido[4,3-d]pyrimidin-2-yl)oxy)methyl)cyclopropyl)methyl)-7-fluoro-2-azaspiro[3.5]nonan-7-yl)methyl)piperazin-1-yl)-1-oxoisoindolin-2-yl)piperidine-2,6-dione]
IC50 (KRAS-G12V/RAF1): > 0.2 µM
DC50 (KRAS G12V): > 0.1 µM
GI50 (SW620 cells): 0.01 to 0.1 µM

CCc1c(F)ccc2cc(O)cc(-c3ncc4c(N5CCC[C@@](C)(O)C5)nc(OCC5(CN6CC7(CCC(F)(CN8CCN(c9ccc%10c(c9)CN([C@H]9CCC(=O)NC9=O)C%10=O)CC8)CC7)C6)CC5)nc4c3F)c12 [Compound 178, (S)-3-(5-(4-((2-((1-(((7-(8-ethyl-7-fluoro-3-hydroxynaphthalen-1-yl)-8-fluoro-4-((R)-3-hydroxy-3-methylpiperidin-1-yl)pyrido[4,3-d]pyrimidin-2-yl)oxy)methyl)cyclopropyl)methyl)-7-fluoro-2-azaspiro[3.5]nonan-7-yl)methyl)piperazin-1-yl)-1-oxoisoindolin-2-yl)piperidine-2,6-dione]
IC50 (KRAS-G12V/RAF1): 0.02 to 0.2 µM
DC50 (KRAS G12V): < 0.001 µM
GI50 (SW620 cells): < 0.01 µM

CCc1c(F)ccc2cc(O)cc(-c3ncc4c(N5CCC[C@@](C)(O)C5)nc(OCC5(CN6CCC7(CC6)CC(F)(CN6CCN(c8ccc(C(=O)N[C@H]9CCC(=O)NC9=O)c(F)c8)CC6)C7)CC5)nc4c3F)c12 [Compound 180, N-((S)-2,6-dioxopiperidin-3-yl)-4-(4-((7-((1-(((7-(8-ethyl-7-fluoro-3-hydroxynaphthalen-1-yl)-8-fluoro-4-((R)-3-hydroxy-3-methylpiperidin-1-yl)pyrido[4,3-d]pyrimidin-2-yl)oxy)methyl)cyclopropyl)methyl)-2-fluoro-7-azaspiro[3.5]nonan-2-yl)methyl)piperazin-1-yl)-2-fluorobenzamide]
IC50 (KRAS-G12V/RAF1): 0.02 to 0.2 µM
DC50 (KRAS G12V): > 0.1 µM
GI50 (SW620 cells): 0.01 to 0.1 µM

CCc1cccc2cc(O)cc(-c3ncc4c(N5CCC[C@@](C)(O)C5)nc(OCC5(CN6CCC(OC7CC8(CCN(c9ccc%10c(c9)CN(C9CCC(=O)NC9=O)C%10=O)CC8)C7)CC6)CC5)nc4c3F)c12 (stereo partly drawn) [Compound 181, 3-(5-(2-((1-((1-(((7-(8-ethyl-3-hydroxynaphthalen-1-yl)-8-fluoro-4-((R)-3-hydroxy-3-methylpiperidin-1-yl)pyrido[4,3-d]pyrimidin-2-yl)oxy)methyl)cyclopropyl)methyl)piperidin-4-yl)oxy)-7-azaspiro[3.5]nonan-7-yl)-1-oxoisoindolin-2-yl)piperidine-2,6-dione]
IC50 (KRAS-G12V/RAF1): > 0.2 µM
DC50 (KRAS G12V): < 0.001 µM
GI50 (SW620 cells): < 0.01 µM

CCc1c(F)ccc2cc(O)cc(-c3ncc4c(N5CCC[C@@](C)(O)C5)nc(OCC5(CN6CC7(CCC(F)(CN8CCN(c9ccc(C(=O)N[C@H]%10CCC(=O)NC%10=O)c(F)c9)CC8)CC7)C6)CC5)nc4c3F)c12 [Compound 183, N-((S)-2,6-dioxopiperidin-3-yl)-4-(4-((2-((1-(((7-(8-ethyl-7-fluoro-3-hydroxynaphthalen-1-yl)-8-fluoro-4-((R)-3-hydroxy-3-methylpiperidin-1-yl)pyrido[4,3-d]pyrimidin-2-yl)oxy)methyl)cyclopropyl)methyl)-7-fluoro-2-azaspiro[3.5]nonan-7-yl)methyl)piperazin-1-yl)-2-fluorobenzamide]
IC50 (KRAS-G12V/RAF1): > 0.2 µM
DC50 (KRAS G12V): > 0.1 µM
GI50 (SW620 cells): 0.01 to 0.1 µM

CCc1c(F)ccc2cc(O)cc(-c3ncc4c(N5CCC[C@@](C)(O)C5)nc(OCC5(CN6CCC7(CC6)CC(C6CCN(c8ccc9c(c8)CN(C8CCC(=O)NC8=O)C9=O)CC6)C7)CC5)nc4c3F)c12 (stereo partly drawn) [Compound 186, 3-(5-(4-(7-((1-(((7-(8-ethyl-7-fluoro-3-hydroxynaphthalen-1-yl)-8-fluoro-4-((R)-3-hydroxy-3-methylpiperidin-1-yl)pyrido[4,3-d]pyrimidin-2-yl)oxy)methyl)cyclopropyl)methyl)-7-azaspiro[3.5]nonan-2-yl)piperidin-1-yl)-1-oxoisoindolin-2-yl)piperidine-2,6-dione]
IC50 (KRAS-G12V/RAF1): > 0.2 µM
DC50 (KRAS G12V): < 0.001 µM
GI50 (SW620 cells): < 0.01 µM

CCc1c(F)ccc2cc(O)cc(-c3ncc4c(N5CCC[C@]6(CCO6)C5)nc(OCC5(CN6CCC7(CC6)CC(N6CCN(c8ccc9c(c8)CN([C@H]8CCC(=O)NC8=O)C9=O)CC6)C7)CC5)nc4c3F)c12 [Compound 218, (S)-3-(5-(4-(7-((1-(((7-(8-ethyl-7-fluoro-3-hydroxynaphthalen-1-yl)-8-fluoro-4-((S)-1-oxa-6-azaspiro[3.5]nonan-6-yl)pyrido[4,3-d]pyrimidin-2-yl)oxy)methyl)cyclopropyl)methyl)-7-azaspiro[3.5]nonan-2-yl)piperazin-1-yl)-1-oxoisoindolin-2-yl)piperidine-2,6-dione]
IC50 (KRAS-G12V/RAF1): 0.02 to 0.2 µM
DC50 (KRAS G12V): < 0.001 µM
GI50 (SW620 cells): < 0.01 µM
